One assay addresses MPS1 (Homo sapiens (Human), UniProt P33981). The assay can be described thus: Biochemical assay for inhibitors of MPS1 kinase activity (33P-ATP trans-phosphorylation, Dowex). The settings on record: 5 nM MPS1, 15 microM ATP, P38-β-tide 200 microM. An excerpt: Cloning, Expression and Purification of Recombinant MPS1 Full Length Protein.
MPS1 full length (corresponding to residues 2-857 of the full length sequence, see Swiss-Prot accession number P33981) was PCR amplified from the full-length human MPS1 gene present in house as clone pGEX4t_MPS1.
Baculoviruses were generated by cotransfecting Sf9 insect cells with the expression vector and the viral DNA using the BaculoGold® transfection kit (Pharmingen). Viral supernatant was recovered after 5 days and subjected to 3 rounds of amplification to increase viral titer. Recombinant protein was produced by infecting High5 insect cells. After 72 hours of infection at 21° C., cells were recovered, pelletted and freezed at −80° C. For purification of recombinant protein, pellet was thawed, resuspended in lysis buffer (PBS, NaCl 150 mM, Glycerol 10%, CHAPS 0.1%, DTT 20 mM, protease and phosphatase inhibitors) and lysed by Gaulin. Lysate was cleared by centrifugation and loaded on a GST affinity column. After extensive wash, recombinant protein was cleaved by a specific protease and eluted by incubation.
To get a fully activated enzyme, the protein was then subjected to auto-phosphorylation in presence of ATP 1 mM at 25° C. for 2 hours in kinase buffer (Hepes pH7.5 50 mM, MgCl2 2.5 mM, MnCl2 1 mM, DTT 1 mM, phosphatase inhibitors); ATP was then removed whit a desalting column.
Biochemical Assay for Inhibitors of MPS1 Kinase Activity
(§1) The inhibitory activity of putative kinase inhibitors and the potency of selected compounds were determined using a trans-phosphorylation assay.
(§2) Specific peptide or protein substrates are trans-phosphorylated by their specific ser-thr or tyr kinase in the presence of ATP traced with ^33P-γ-ATP, and in the presence of their own optimal buffer and cofactors.
(§3) At the end of the phosphorylation reaction, more than 98% unlabeled ATP and radioactive ATP is captured by an excess of the ion exchange dowex resin; the resin then settles down to the bottom of the reaction plate by gravity.
Supernatant is subsequently withdrawn and transferred into a counting plate, then evaluated by P-counting.
The buffer for MPS1 assay was composed of HEPES 50 mM, at pH 7.5, with 2.5 mM MgCl2, 1 mM MnCl2, 1 mM DTT, 3 microM Na3VO4, 2 mM P-glycerophosphate and 0.2 mg/mL BSA.
The assay was run with a final concentration MPS1 of 5 nM, in the presence of 15 microM ATP and 1.5 nM ^33P-γ-ATP; the substrate was P38-β-tide, used at 200 microM.
(§4) The test mix consisted of:
(§5) 1) 3× Enzyme mix (done in Kinase Buffer 3×), 5 microL/well
(§6) 2) 3× substrate and ATP mix (done in ddH2O), together with ^33P-γ-ATP, 5 microL/well
(§7) 3) 3× test compounds (diluted into ddH2O—3% DMSO)—5 microL/well
a) for percent inhibition studies (HTS), individual dilution plates at 1 mM are diluted at a 3× concentration (30 microM) in ddH2O (3% DMSO=final concentration) using a Beckman NX automated pipetting platform. The same instrument is used for distributing the diluted mother plates into the test plates. b) for IC50 determination (KSS platform), 100 μl of each compound at 1 mM in 100% DMSO are transferred from the original plate into the first column of another 96 well plate (A1 to G1); well H1 is left empty for the internal standard inhibitor, usually staurosporine.
An automated station for serial dilutions (Biomek FX, Beckman) is used for producing 1:3 dilutions in 100% DMSO, from line A1 to A10, and for all the seven compounds in the column. Moreover, 4-5 copies of daughter plates are prepared by reformatting 5 microL of this first set of 100% DMSO dilution plates into 384 deep well-plates: one copy of the daughter plates with the serial dilutions of test compounds will be thaw the day of the experiments, reconstituted at a 3× concentration with water and used in the IC50 determination assays. In a standard experiment, the highest concentration (3×) of all compounds is 30 microM, while the lowest one is 1.5 nM. […]

Another assay concerns the target PIM-1 (Homo sapiens (Human), UniProt P11309). In words: Biochemical assay for inhibitors of PIM-1 kinase activity (33P-ATP trans-phosphorylation, Dowex). The settings on record: 1 nM enzyme, 200 microM ATP, Aktide 25 microM. As for the experimental part:
Biochemical Assay for Inhibitors of PIM-1 Kinase Activity
as §1, §2, §3
Supernatant is subsequently withdrawn and transferred into a counting plate, then evaluated by (3-counting.
The buffer for PIM-1 assay was composed of HEPES 50 mM, at pH 7.5, with 10 mM MgCl2, 1 mM DTT, 3 microM NaVO3, and 0.2 mg/mL BSA
Full-length human PIM-1 was expressed and purified as described in Bullock A N, et al., J. Biol. Chem. 2005, 280, 41675-82.
1.7 microM PIM1 was incubated 1 hour RT at 28° C. in the presence of 125 microM ATP
ATP concentration: 200 microM
Enzyme concentration: 1 nM
Substrate concentration Aktide (Chemical Abstract Service Registry Number 324029-01-8): 25 microM
as §4, §5, §6, §7
For IC50 determination, test compounds are received as a 1 mM solution in 100% DMSO and distributed into 96-well plates: compounds are then plated into the first column of a new 96-well plate (A1 to G1), 100 microL/well.
An automated station (Biomek FX, Beckman) is used for serial dilutions, producing 1:3 dilutions in 100% DMSO, from line A1 to A10, for all the compounds in the column. […]
Data are analyzed by an internally customized version of the “Assay Explorer” SW package, which provides sigmoidal fitting of the ten-dilution curves for IC50 determination in secondary assay/hit confirmation routines.

The target in another assay is PIM-2 (Homo sapiens (Human), UniProt Q9P1W9). In words: PIM-2 kinase inhibition assay: Dowex technique. As to conditions: 1.5 nM enzyme, 4 microM ATP, Aktide 5 microM. The class given is biochemical. The method, then:
Method for PIM-2 Kinase Inhibition Assay: Dowex Technique
The buffer for PIM-2 assay was composed of HEPES 50 mM, at pH 7.5, with 1 mM MgCl2, 1 mM DTT, 3 microM Na3VO4, and 0.2 mg/mL BSA
Full-length human PIM-2 was expressed and purified as described in Fedorov O, et al., PNAS 2007 104, 51, 20523-28.
Enzyme concentration=1.5 nM
Aktide substrate (Chemical Abstract Service Registry Number 324029-01-8)=5 microM
See above: same procedure as described for PIM-1.

The structures appear in SMILES notation. Counter-ions that a name gives are not always drawn.

Chain of PIM-2 (Q9P1W9 whole entry): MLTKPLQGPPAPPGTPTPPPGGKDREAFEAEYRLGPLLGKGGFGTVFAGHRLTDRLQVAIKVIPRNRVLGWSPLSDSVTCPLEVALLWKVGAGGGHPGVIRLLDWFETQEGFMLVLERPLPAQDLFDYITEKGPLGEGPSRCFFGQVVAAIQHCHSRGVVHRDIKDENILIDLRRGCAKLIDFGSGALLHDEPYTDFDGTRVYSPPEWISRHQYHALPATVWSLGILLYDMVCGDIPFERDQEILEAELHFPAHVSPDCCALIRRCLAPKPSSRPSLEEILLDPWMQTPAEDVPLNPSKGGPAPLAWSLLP
Chain of MPS1 (P33981 2-857): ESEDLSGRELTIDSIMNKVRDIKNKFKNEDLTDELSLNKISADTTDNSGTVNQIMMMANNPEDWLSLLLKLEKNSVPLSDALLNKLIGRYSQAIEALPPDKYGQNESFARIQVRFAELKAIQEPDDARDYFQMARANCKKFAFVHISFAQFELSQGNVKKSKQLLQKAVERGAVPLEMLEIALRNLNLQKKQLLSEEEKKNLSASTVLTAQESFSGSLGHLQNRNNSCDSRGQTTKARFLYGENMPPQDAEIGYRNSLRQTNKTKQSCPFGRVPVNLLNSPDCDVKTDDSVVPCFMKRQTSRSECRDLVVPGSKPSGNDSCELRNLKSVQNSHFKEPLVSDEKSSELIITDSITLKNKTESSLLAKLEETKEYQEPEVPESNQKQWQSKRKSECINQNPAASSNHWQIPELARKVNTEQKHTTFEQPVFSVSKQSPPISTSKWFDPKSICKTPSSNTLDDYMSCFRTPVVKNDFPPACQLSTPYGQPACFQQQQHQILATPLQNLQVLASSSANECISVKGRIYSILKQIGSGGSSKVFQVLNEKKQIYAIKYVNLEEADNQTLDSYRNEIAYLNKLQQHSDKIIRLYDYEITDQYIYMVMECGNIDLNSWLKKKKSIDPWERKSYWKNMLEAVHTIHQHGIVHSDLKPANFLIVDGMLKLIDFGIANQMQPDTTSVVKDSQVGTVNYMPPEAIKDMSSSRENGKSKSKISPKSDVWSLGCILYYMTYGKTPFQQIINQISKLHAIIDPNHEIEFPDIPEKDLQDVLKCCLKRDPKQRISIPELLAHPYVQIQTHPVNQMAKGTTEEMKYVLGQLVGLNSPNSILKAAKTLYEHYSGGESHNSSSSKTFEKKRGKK
Chain of PIM-1 (P11309 whole entry): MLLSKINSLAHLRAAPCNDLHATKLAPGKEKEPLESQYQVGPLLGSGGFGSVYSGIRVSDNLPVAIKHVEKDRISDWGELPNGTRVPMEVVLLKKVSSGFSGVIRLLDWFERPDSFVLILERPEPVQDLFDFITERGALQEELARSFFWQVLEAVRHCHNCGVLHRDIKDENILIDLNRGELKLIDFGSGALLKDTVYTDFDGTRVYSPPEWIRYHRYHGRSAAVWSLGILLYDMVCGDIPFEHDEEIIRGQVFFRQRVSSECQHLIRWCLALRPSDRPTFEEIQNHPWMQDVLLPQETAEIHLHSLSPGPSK

What is called IC50 is the midpoint of a concentration-inhibition curve. For the compound `COc1cc(C(=O)NC2CCN(C)CC2)ccc1Nc1ncc2c(n1)-c1c(c(C(=O)N[C@H](CN)c3ccccc3)nn1C)CCC2` [Compound 5, N-[(1S)-2-amino-1-phenylethyl]-9-({2-methoxy-4-[(1-methylpiperidin-4-yl)carbamoyl]phenyl}amino)-1-methyl-1,4,5,6-tetrahydropyrazolo[4′,3′:6,7]cyclohepta[1,2-d]pyrimidine-3-carboxamide dihydrochloride], the IC50 at MPS1 is 469 nM; against PIM-1, 497 nM; at PIM-2, 3760 nM.
Taken in the same sequence, the figures for `CN1CCN(c2ccc(Nc3ncc4c(n3)-c3c(c(C(N)=O)nn3C)CCC4)cc2)CC1` [Compound 67, 1-methyl-9-{[4-(4-methylpiperazin-1-yl)phenyl]amino}-1,4,5,6-tetrahydropyrazolo[4′,3′:6,7]cyclohepta[1,2-d]pyrimidine-3-carboxamide trifluoroacetate] were 1200 nM, 2450 nM and 3600 nM.
In the same order, the values of `COc1cc(N2CCN(C)CC2)ccc1Nc1ncc2c(n1)-c1c(c(C(N)=O)nn1C)CCC2` [Compound 3, 9-{[2-methoxy-4-(4-methylpiperazin-1-yl)phenyl]amino}-1-methyl-1,4,5,6-tetrahydropyrazolo[4′,3′:6,7]cyclohepta[1,2-d]pyrimidine-3-carboxamide] are 194 nM, 1320 nM and 5910 nM.

The values are drawn from patent publication US8916577B2, “Tricyclic derivatives, process for their preparation and their use as kinase inhibitors” (Nerviano Medical Sciences S.R.L., priority 2011, dated 2014).
